According to PubChem BioAssay (NCI):
“And” between values parts separate entries of the source, which are not always exact repeats. Equal entries are not always repeated.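 All cell lines were grown in 96-well plates and treated with compound for 48 hours. GI50 marks 50% less growth. At the TGI there is no net growth.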

Assays:
Assay in all cases: DTP human tumour cell line panel, 48 h
[1] = test system: CAKI-1 renal
[2] = test system: HCT-15 colon
[3] = test system: SNB-75 CNS
[4] = test system: NCI-H23 lung
[5] = test system: OVCAR-8 ovarian
[6] = test system: M19-MEL melanoma
[7] = test system: 786-0 renal
[8] = test system: BT-549 breast
[9] = test system: MDA-N
[10] = test system: HS 578T breast

With Cc1cc(C(=O)N2CCN(Cc3ccccc3)CC2)c(C)o1 the TGI [1] was greater than 100 µM, the TGI [2] was greater than 100 µM and the TGI [3] was greater than 100 µM. The TGI [4] was greater than 100 µM, the TGI [5] was greater than 100 µM and the TGI [6] was greater than 100 µM. It also gave a TGI [7] greater than 100 µM.
Molecule Cc1cc(C)cc(Sc2c([N+](=O)[O-])ncn2C)c1 has a TGI [1] of 89.2 µM, a TGI [3] of 62.5 µM and a TGI [4] of 33.3 µM. It also gave a TGI [5] of 29.7 µM, a TGI [6] of 84.1 µM and a TGI [7] of 76.8 µM.
For Cc1cc(NS(=O)(=O)c2ccc(NC(=O)c3cccc4c(Nc5ccc(S(=O)(=O)Nc6cc(C)on6)cc5)c5ccccc5nc34)cc2)no1, the TGI [1] was greater than 100 µM, the TGI [2] was greater than 100 µM and the TGI [3] was 77.4 µM. The TGI [4] was greater than 100 µM, the TGI [5] was greater than 100 µM and the TGI [6] was greater than 100 µM. For the same molecule, the TGI [7] was 89.8 µM.
O=c1c2ccccc2c(=O)c2c1cc(Cl)c1[nH]c3c([nH]c12)c(Cl)cc1c(=O)c2ccccc2c(=O)c13 showed a TGI [1] greater than 100 µM, a TGI [2] greater than 100 µM and a TGI [3] greater than 100 µM. It also gave a TGI [4] greater than 100 µM, a TGI [5] greater than 100 µM and a TGI [6] greater than 100 µM. The TGI [7] was greater than 100 µM.
Work on N#CCC(=O)N/N=C1\C(=O)N(c2ccc(Cl)cc2)C(=O)C(=O)C1c1nc2ccccc2o1 (stereo not given) yielded a TGI [1] greater than 100 µM, a TGI [2] greater than 100 µM and a TGI [3] greater than 100 µM. The TGI [4] was greater than 100 µM, the TGI [5] was greater than 100 µM and the TGI [6] was greater than 100 µM. For the same molecule, the TGI [7] was greater than 100 µM.
In the case of CCOC(=O)C(=O)N=Nc1nc2c(O)c3ccccc3c(O)c2s1, the TGI [1] was 35.6 µM, the TGI [2] was 6.49 µM and the TGI [3] was 9.02 µM. It also gave a TGI [4] of 4.91 µM, a TGI [5] of 5.12 µM and a TGI [6] of 1.27 µM. For the same molecule, the TGI [8] was 22.9 µM, the TGI [7] was 22.8 µM and the TGI [9] was 3.2 µM. For the same molecule, the TGI [10] was 10.5 µM.
In the case of O=C(Nc1ccccc1Br)c1cccc([N+](=O)[O-])c1O, the TGI [1] was greater than 43.8 µM, the TGI [2] was 25.4 µM and the TGI [3] was 53.1 µM. For the same molecule, the TGI [4] was 6.31 µM, the TGI [5] was greater than 71.4 µM and the TGI [6] was 12.9 µM. For the same molecule, the TGI [7] was greater than 41 µM.
CC(=O)OC1C(CCl)OC(N=[N+]=[N-])C(OC(C)=O)C1OC(C)=O (stereo not given) was tested, and the TGI [1] was greater than 100 µM, the TGI [2] was greater than 100 µM and the TGI [3] was greater than 100 µM. For the same molecule, the TGI [4] was greater than 100 µM, the TGI [5] was greater than 100 µM and the TGI [6] was greater than 100 µM. The TGI [7] was greater than 100 µM.
Work on O=C(O)C1c2ccccc2C(C(=O)O)c2ccccc21 (stereo not given) yielded a TGI [1] greater than 100 µM, a TGI [2] greater than 100 µM and a TGI [3] greater than 100 µM. It also gave a TGI [5] greater than 100 µM, a TGI [6] greater than 100 µM and a TGI [7] greater than 100 µM.
Work on CC(C)(C)[Si](C)(C)O/N=C\c1ccc(O[Si](C)(C)C(C)(C)C)cc1 yielded a TGI [1] greater than 100 µM, a TGI [2] greater than 100 µM and a TGI [3] greater than 100 µM. It also gave a TGI [4] greater than 100 µM, a TGI [5] greater than 100 µM and a TGI [6] greater than 100 µM. It also gave a TGI [7] greater than 100 µM.
C=C1Oc2nc3ccccc3c(=O)n2C1(C)C gave a TGI [1] greater than 100 µM, a TGI [2] greater than 100 µM and a TGI [4] greater than 100 µM. For the same molecule, the TGI [5] was greater than 100 µM, the TGI [6] was greater than 100 µM and the TGI [7] was greater than 100 µM.
In the case of CC[O-].Cc1ccc2cccc([O-])c2n1.Cc1ccc2cccc([O-])c2n1.Cc1ccc2cccc([O-])c2n1.[Ti+4], the GI50 [1] was greater than 86.6 µM, the TGI [1] was greater than 100 µM and the GI50 [2] was 42.4 µM. For the same molecule, the TGI [2] was greater than 100 µM, the GI50 [3] was 63.8 µM and the TGI [3] was greater than 100 µM. The GI50 [4] was greater than 63.5 µM, the TGI [4] was greater than 100 µM and the GI50 [5] was 12.4 µM. It also gave a TGI [5] of 47.1 µM, a GI50 [6] of 14 µM and a TGI [6] of 27.7 µM. For the same molecule, the GI50 [7] was 28.9 µM and the TGI [7] was greater than 57.9 µM.
Molecule COc1cc2cc[n+]3c4cc(OC)c(OC)cc4c(C)cc3c2cc1OC has a TGI [1] greater than 100 µM, a TGI [2] greater than 100 µM and a TGI [3] greater than 100 µM. The TGI [4] was greater than 100 µM, the TGI [5] was greater than 100 µM and the TGI [6] was greater than 100 µM. For the same molecule, the TGI [7] was greater than 100 µM.
In the case of O=C(O)C#CCO, the TGI [1] was greater than 100 µM, the TGI [2] was greater than 100 µM and the TGI [3] was greater than 100 µM. The TGI [4] was greater than 100 µM, the TGI [5] was greater than 100 µM and the TGI [6] was greater than 100 µM. For the same molecule, the TGI [7] was greater than 100 µM.
Molecule C/C(=N/NC(=O)C(N)=O)C(CC(C(=O)Nc1ccccc1C)/C(C)=N\NC(=O)C(N)=O)C(=O)Nc1ccccc1C (stereo not given) has a TGI [1] greater than 100 µM, a TGI [3] greater than 100 µM and a TGI [4] greater than 100 µM. It also gave a TGI [5] greater than 100 µM, a TGI [6] greater than 100 µM and a TGI [7] greater than 100 µM.
In the case of CC1=C(c2cc(C(=O)Nc3ccc(Cl)c(Cl)c3)nc(N)n2)Sc2ccccc2N1, the TGI [1] was greater than 100 µM, the TGI [2] was greater than 100 µM and the TGI [3] was greater than 100 µM. It also gave a TGI [4] greater than 100 µM, a TGI [5] greater than 100 µM and a TGI [6] greater than 100 µM. It also gave a TGI [7] greater than 100 µM.
CCC[CH2][Sn]([CH2]CCC)([O]C(=O)c1nccnc1N)[O]C(=O)c1nccnc1N was tested, and the GI50 [1] was 0.226 µM, the TGI [1] was 1.77 µM and the GI50 [2] was 1.15 µM. For the same molecule, the TGI [2] was 2.37 µM, the GI50 [3] was 0.87 µM and the TGI [3] was 2.12 µM. For the same molecule, the GI50 [4] was 0.573 µM, the TGI [4] was 1.91 µM and the GI50 [5] was 1.21 µM. It also gave a TGI [5] of 2.45 µM, a TGI [6] of 1.49 µM and a GI50 [7] of 0.652 µM. For the same molecule, the TGI [7] was 1.91 µM.
CCN(CC)CCNC(=O)c1cccc2cc3ccccc3nc12 gave a TGI [1] greater than 100 µM, a TGI [2] of 32.5 µM and a TGI [3] of 21.6 µM. For the same molecule, the TGI [5] was greater than 100 µM, the TGI [6] was 16.6 µM and the TGI [7] was 32 µM.
Cc1ccccc1N=Nc1c(O)[nH]c2ccccc12 showed a TGI [1] greater than 100 µM, a TGI [2] greater than 100 µM and a TGI [3] greater than 100 µM. The TGI [4] was greater than 100 µM, the TGI [5] was greater than 100 µM and the TGI [8] was greater than 100 µM. For the same molecule, the TGI [7] was greater than 100 µM, the TGI [9] was greater than 100 µM and the TGI [10] was greater than 100 µM.
For O=C1/C(=C/c2ccccc2)CCC/C1=C\c1ccccc1, the GI50 [1] was 7.03 µM and 17 µM, the TGI [1] was 13 µM and 46.4 µM and 44.7 µM and the GI50 [2] was 5.91 µM and 6.43 µM. The TGI [2] was 11.9 µM and 31.7 µM and 43.8 µM, the GI50 [3] was 6.22 µM and the TGI [3] was 13.2 µM and 51.2 µM and 52.1 µM. The GI50 [4] was 6.88 µM, the TGI [4] was 12.3 µM and 21.9 µM and 36.4 µM and the GI50 [5] was 3.57 µM. The TGI [5] was 13.6 µM and 28.1 µM and 25.4 µM, the TGI [6] was 6.98 µM and the TGI [8] was 10.9 µM and 24 µM. For the same molecule, the GI50 [7] was 6.62 µM, the TGI [7] was 11.9 µM and 25.9 µM and 27.1 µM and the TGI [9] was 7.71 µM. For the same molecule, the GI50 [10] was 43.2 µM and the TGI [10] was 28.1 µM and > 100 µM.
In the case of O=C(O)CCC1(Br)CCCCC(Br)C1=O (stereo not given), the TGI [1] was greater than 100 µM, the TGI [2] was greater than 100 µM and the TGI [3] was greater than 100 µM. The TGI [4] was greater than 100 µM, the TGI [5] was greater than 100 µM and the TGI [6] was greater than 100 µM. It also gave a TGI [7] greater than 100 µM.
In the case of CCC1CC(=O)N(SCC(N)C(=O)O)C1=O (stereo not given), the TGI [1] was greater than 100 µM, the TGI [2] was greater than 100 µM and the TGI [3] was greater than 100 µM. The TGI [4] was greater than 100 µM, the TGI [5] was greater than 100 µM and the TGI [8] was greater than 100 µM. It also gave a TGI [7] greater than 100 µM, a TGI [9] greater than 100 µM and a TGI [10] greater than 100 µM.
COC(=O)c1ccc([N+](=O)[O-])c(O)c1 was tested, and the TGI [1] was greater than 100 µM, the TGI [2] was greater than 100 µM and the TGI [3] was greater than 100 µM. It also gave a TGI [4] greater than 100 µM, a TGI [5] greater than 100 µM and a TGI [8] greater than 100 µM. The TGI [7] was greater than 100 µM, the TGI [9] was greater than 100 µM and the TGI [10] was greater than 100 µM.
With CC1OC(OC2CC(O)C3(CO)C4C(O)CC5(C)C(C6=CC(=O)OC6)CCC5(O)C4CCC3(O)C2)C(O)C(O)C1O (stereo not given) the GI50 [1] was less than 0.0146 µM, the TGI [1] was 0.024 µM and the GI50 [2] was less than 0.0133 µM. The TGI [2] was 0.024 µM, the TGI [3] was 0.099 µM and the GI50 [4] was less than 0.0108 µM. For the same molecule, the TGI [4] was less than 0.0142 µM, the GI50 [5] was less than 0.0199 µM and the TGI [5] was 0.046 µM. It also gave a GI50 [8] of less than 12.9 nM, a TGI [8] of 0.0208 µM and a GI50 [7] of less than 0.0129 µM. For the same molecule, the TGI [7] was less than 0.0179 µM, the GI50 [9] was less than 19.5 nM and the TGI [9] was 0.122 µM. It also gave a GI50 [10] of less than 0.0155 µM and a TGI [10] of 0.304 µM.
